Measured values as given in US10889748B2, “Process for preparing dibenzylamine quaternary ammonium salt high-temperature resistant corrosion inhibitor and applications thereof” (Southwest Petroleum University, priority 2018, dated 2021).

Tests used:
[1] = Compatibility with 20% hydrochloric acid system containing iron ion stabilizer, clay stabilizer and discharge aiding agent; type: physicochemical; conditions: 0.1 g in 20% hydrochloric acid system with citric acid, potassium chloride and OP-10 or fluorocarbon surfactant; 90° C.
Protocol: (§1) The water solubility of the corrosion inhibitor prepared by Embodiments 1 to 4 and its compatibility with the system containing the iron ion stabilizer, clay stabilizer and discharge aiding agent under 90° C. are determined. The process is as follows: weigh […] of the corrosion inhibitor of the present invention, and dissolve in 200 mL of 20% hydrochloric acid solution, respectively, stir and observe its dissolution. Prepare 20% hydrochloric acid solution system adding with iron ion stabilizer citric acid, clay stabilizer potassium chloride and discharge aiding agent OP-10 or fluorocarbon surfactant, respectively, and then weigh 0.1 g of the corrosion inhibitor of the present invention and add them to the 20% hydrochloric acid solution system, to observe the compatibility.

[2] = Determination of water solubility of corrosion inhibitors in 20% hydrochloric acid solution; type: physicochemical; conditions: 0.1 g corrosion inhibitor in 200 mL of 20% hydrochloric acid solution
Protocol: as §1, with “The” for “The water solubility of the corrosion inhibitor prepared by Embodiments 1 to 4 and its compatibility with the system containing the iron ion stabilizer, clay stabilizer and discharge aiding agent under 90° C. are determined. The”

[3] = 4 h corrosion test at 90° C. in 20% hydrochloric acid; conditions: P110 carbon steel, 1000 ppm inhibitor
Protocol: The corrosion inhibition performance of corrosion inhibitors in the embodiments 1 to 4 is determined by a 4 h corrosion test at 90° C. using 20% hydrochloric acid as a corrosive medium and P110 carbon steels. The amount of corrosion inhibitors is 1000 ppm.

| Structure (SMILES) | Compatibility [1] | Water solubility and appearance [2] | Corrosion rate [3] [gm^−2h^−1] | Inhibition rate [3] [%] |
| --- | --- | --- | --- | --- |
| OC(C[N+]1(Cc2ccc3ccccc3c2)CCOCC1)C[N+](Cc1ccccc1)(Cc1ccccc1)Cc1ccc2ccccc2c1 (stereo not drawn) [Embodiment 1] | Uniform and transparent, | Soluble colorless | 34.87 | 95.18 |
| OC(C[N+](Cc1ccccc1)(Cc1ccccc1)Cc1ccccc1)C[N+]1(Cc2ccccc2)C=Cc2ccccc21 (stereo not drawn) [Embodiment 2] | Uniform and transparent, | Soluble colorless | 45.79 | 93.68 |
| CCCCCC[N+](Cc1ccccc1)(Cc1ccccc1)CC(O)C[N+](CCCCCC)(Cc1ccccc1)CC(O)C[N+](CCCCCC)(Cc1ccccc1)Cc1ccccc1 (stereo not drawn) [Embodiment 3] | Uniform and transparent, | Soluble colorless | 29.86 | 95.88 |
